Columns and labels:
[1] = test system: Abutilon; test: Pre-emergence test/greenhouse; assay type: in vivo; conditions: after three weeks
Description: (§1) Solvent: 5 parts by weight of acetone
(§2) Emulsifier: 1 part by weight of alkylaryl polyglycol ether
(§3) To produce a suitable preparation of active compound, 1 part by weight of active compound is mixed with the stated amount of solvent, the stated amount of emulsifier is added and the concentrate is diluted with water to the desired concentration.
(§4) Seeds of the test plants are sown in normal soil. After about 24 hours, the soil is sprayed with the preparation of active compound in such a way that the particular amounts of active compound desired are employed per unit area. The concentration of the spray liquor is chosen such that the particular amounts of active compound desired are applied in 1000 l of water/ha.
(§5) After three weeks, the degree of damage to the plants is assessed in % damage in comparison to the development of the untreated control.
(§6) 0%=no effect (as untreated control) 100%=total destruction

[2] = test system: Alopecurus; test: Pre-emergence test/greenhouse; assay type: in vivo; conditions: after three weeks
Description: as §1, §2, §3, §4, §5, §6

[3] = test system: Amaranthus; test: Pre-emergence test/greenhouse; assay type: in vivo; conditions: after three weeks
Description: as §1, §2, §3, §4, §5, §6

[4] = test system: Cassia; test: Pre-emergence test/greenhouse; assay type: in vivo; conditions: 250 g of ai./ha, after three weeks
Description: as §1, §2, §3, §4, §5, §6

[5] = test system: Ipomoea; test: Pre-emergence test/greenhouse; assay type: in vivo; conditions: 250 g of ai./ha, after three weeks
Description: as §1, §2, §3, §4, §5, §6

[6] = test system: Lolium; test: Pre-emergence test/greenhouse; assay type: in vivo; conditions: 250 g of ai./ha, after three weeks
Description: as §1, §2, §3, §4, §5, §6

[7] = test system: Sorghum; test: Pre-emergence test/greenhouse; assay type: in vivo; conditions: 250 g of ai./ha, after three weeks
Description: as §1, §2, §3, §4, §5, §6

[8] = test system: weeds; test: Pre-emergence test; assay type: in vivo; conditions: cf. Table A
Description: as §1, §2, §3, §4, §5, §6

[9] = test system: Setaria; test: Pre-emergence test/greenhouse; assay type: in vivo; conditions: after three weeks
Description: as §1, §2, §3, §4, §5, §6

[10] = test system: Cassia; test: Post-emergence test/greenhouse; assay type: in vivo; conditions: after three weeks
Description: as §1, §2, §3
(§7) Test plants which have a height of 5 to 15 cm are sprayed with the preparation of active compound in such a way that the particular amounts of active compound desired are applied per unit area. The concentration of the spray liquor is chosen such that the particular amounts of active compound desired are applied in 1000 l of water/ha.
as §5
(§8) 0%=no effect (as untreated control)

[11] = test system: Echinochloa; test: Post-emergence test/greenhouse; assay type: in vivo; conditions: 125 g of ai./ha, after three weeks
Description: as §1, §2, §3, §7, §5, §8

[12] = test system: Ipomoea; test: Post-emergence test/greenhouse; assay type: in vivo; conditions: after three weeks
Description: as §1, §2, §3, §7, §5, §8

[13] = test system: Matricaria; test: Post-emergence test/greenhouse; assay type: in vivo; conditions: 125 g of ai./ha, after three weeks
Description: as §1, §2, §3, §7, §5, §8

[14] = test system: Setaria; test: Post-emergence test/greenhouse; assay type: in vivo; conditions: 125 g of ai./ha, after three weeks
Description: as §1, §2, §3, §7, §5, §8

[15] = test system: Veronica; test: Post-emergence test/greenhouse; assay type: in vivo; conditions: after three weeks
Description: as §1, §2, §3, §7, §5, §8

[16] = test system: Xanthium; test: Post-emergence test/greenhouse; assay type: in vivo; conditions: 125 g of ai./ha, after three weeks
Description: as §1, §2, §3, §7, §5, §8

[17] = test system: weeds; test: Post-emergence test; assay type: in vivo; conditions: cf. Table B
Description: as §1, §2, §3, §7, §5, §8

[18] = test system: Reapseed; test: Pre-emergence test/greenhouse; assay type: in vivo; conditions: after three weeks
Description: as §1, §2, §3, §4, §5, §6

[19] = test system: Solanum; test: Post-emergence test/greenhouse; assay type: in vivo; conditions: 60 g of ai./ha, after three weeks
Description: as §1, §2, §3, §7, §5, §8

[20] = test system: Wheat; test: Post-emergence test/greenhouse; assay type: in vivo; conditions: after three weeks
Description: as §1, §2, §3, §7, §5, §8

[21] = test system: Avena fatua; test: Pre-emergence test/greenhouse; assay type: in vivo; conditions: after three weeks
Description: as §1, §2, §3, §4, §5, §6

[22] = test system: Barley; test: Pre-emergence test/greenhouse; assay type: in vivo; conditions: 250 g of ai./ha, after three weeks
Description: as §1, §2, §3, §4, §5, §6

[23] = test system: Chenopodium; test: Pre-emergence test/greenhouse; assay type: in vivo; conditions: 125 g of ai./ha, after three weeks
Description: as §1, §2, §3, §4, §5, §6

[24] = test system: Cotton; test: Pre-emergence test/greenhouse; assay type: in vivo; conditions: 250 g of ai./ha, after three weeks
Description: as §1, §2, §3, §4, §5, §6

[25] = test system: Datura; test: Pre-emergence test/greenhouse; assay type: in vivo; conditions: 125 g of ai./ha, after three weeks
Description: as §1, §2, §3, §4, §5, §6

[26] = test system: Galium; test: Pre-emergence test/greenhouse; assay type: in vivo; conditions: 1000 g of ai./ha, after three weeks
Description: as §1, §2, §3, §4, §5, §6

[27] = test system: Matricaria; test: Pre-emergence test/greenhouse; assay type: in vivo; conditions: 125 g of ai./ha, after three weeks
Description: as §1, §2, §3, §4, §5, §6

[28] = test system: Solanum; test: Pre-emergence test/greenhouse; assay type: in vivo; conditions: 125 g of ai./ha, after three weeks
Description: as §1, §2, §3, §4, §5, §6

[29] = test system: Veronica; test: Pre-emergence test/greenhouse; assay type: in vivo; conditions: 250 g of ai./ha, after three weeks
Description: as §1, §2, §3, §4, §5, §6

[30] = test system: Viola; test: Pre-emergence test/greenhouse; assay type: in vivo; conditions: 250 g of ai./ha, after three weeks
Description: as §1, §2, §3, §4, §5, §6

[31] = test system: Xanthium; test: Pre-emergence test/greenhouse; assay type: in vivo; conditions: 1000 g of ai./ha, after three weeks
Description: as §1, §2, §3, §4, §5, §6

[32] = test system: Barley; test: Post-emergence test/greenhouse; assay type: in vivo; conditions: 125 g of ai./ha, after three weeks
Description: as §1, §2, §3, §7, §5, §8

[33] = test system: Polygonum; test: Post-emergence test/greenhouse; assay type: in vivo; conditions: 60 g of ai./ha, after three weeks
Description: as §1, §2, §3, §7, §5, §8

CC(F)c1nc(N)nc(NC(C)c2ccccc2)n1 (racemic) [Example 16]
degree of damage, Abutilon ([1]; 250 g of ai./ha): 80%
degree of damage, Alopecurus ([2]; 250 g of ai./ha): 100%
degree of damage, Amaranthus ([3]; 250 g of ai./ha): 100%
degree of damage, Cassia [4]: 100%
degree of damage, Ipomoea [5]: 100%
degree of damage, Lolium [6]: 100%
degree of damage, Sorghum [7]: 95%
action against weeds compared with known compound (A) [8]: considerably strong action against weeds than the known compound (A)

CCC(Nc1nc(NC(C)=O)nc(C(C)F)n1)c1ccccc1 (racemic) [Example 2, 2-acetylamino-4-(1-fluoro-ethyl)-6-(1-phenyl-propylamino)-1,3,5-triazine]
degree of damage, Abutilon ([1]; 1000 g of ai./ha): 100%
degree of damage, Alopecurus ([2]; 1000 g of ai./ha): 90%
degree of damage, Amaranthus ([3]; 1000 g of ai./ha): 100%
degree of damage, Setaria ([9]; 1000 g of ai./ha): 70%
degree of damage, Cassia ([10]; 125 g of ai./ha): 100%
degree of damage, Echinochloa [11]: 80%
degree of damage, Ipomoea ([12]; 125 g of ai./ha): 100%
degree of damage, Matricaria [13]: 95%
degree of damage, Setaria [14]: 80%
degree of damage, Veronica ([15]; 125 g of ai./ha): 95%
degree of damage, Xanthium [16]: 80%
action against weeds compared with known compound (A) [8]: considerably strong action against weeds than the known compound (A)
activity against weeds compared with known compound (A) [17]: considerably stronger activity against weeds than the known compound (A)
melting point: 118 °C

CC(Cl)c1nc(N)nc(NC(C)c2ccccc2)n1 (racemic) [Example 18]
degree of damage, Amaranthus ([3]; 250 g of ai./ha): 100%
degree of damage, Ipomoea [5]: 95%
degree of damage, Reapseed ([18]; 250 g of ai./ha): 0%
degree of damage, Cassia ([10]; 60 g of ai./ha): 70%
degree of damage, Solanum [19]: 90%
degree of damage, Veronica ([15]; 60 g of ai./ha): 95%
degree of damage, Wheat ([20]; 60 g of ai./ha): 0%
action against weeds compared with known compound (A) [8]: considerably strong action against weeds than the known compound (A)
activity against weeds compared with known compound (A) [17]: considerably stronger activity against weeds than the known compound (A)

CC(Nc1nc(N)nc(C(F)(F)F)n1)c1ccccc1 (stereo not drawn) [(A), 2-Amino-4-(1-phenyl-ethylamino)-6-trifluoromethyl-1,3,5-triazine, reference compound]
degree of damage, Abutilon ([1]; 250 g of ai./ha): 0%
degree of damage, Abutilon ([1]; 1000 g of ai./ha): 0%
degree of damage, Alopecurus ([2]; 250 g of ai./ha): 30%
degree of damage, Alopecurus ([2]; 1000 g of ai./ha): 30%
degree of damage, Amaranthus ([3]; 125 g of ai./ha): 40%
degree of damage, Amaranthus ([3]; 250 g of ai./ha): 80%
degree of damage, Amaranthus ([3]; 1000 g of ai./ha): 70%
degree of damage, Avena fatua ([21]; 250 g of ai./ha): 0%
degree of damage, Avena fatua ([21]; 1000 g of ai./ha): 0%
degree of damage, Barley [22]: 0%
degree of damage, Cassia [4]: 20%
degree of damage, Chenopodium [23]: 20%
degree of damage, Cotton [24]: 0%
degree of damage, Datura [25]: 0%
degree of damage, Galium [26]: 60%
degree of damage, Ipomoea [5]: 20%
degree of damage, Lolium [6]: 0%
degree of damage, Matricaria [27]: 0%
degree of damage, Reapseed ([18]; 125 g of ai./ha): 40%
degree of damage, Reapseed ([18]; 250 g of ai./ha): 40%
degree of damage, Setaria ([9]; 250 g of ai./ha): 0%
degree of damage, Setaria ([9]; 1000 g of ai./ha): 20%
degree of damage, Solanum [28]: 0%
degree of damage, Sorghum [7]: 0%
degree of damage, Veronica [29]: 20%
degree of damage, Viola [30]: 0%
degree of damage, Xanthium [31]: 70%
degree of damage, Barley [32]: 5%
degree of damage, Cassia ([10]; 60 g of ai./ha): 40%
degree of damage, Cassia ([10]; 125 g of ai./ha): 80%
degree of damage, Echinochloa [11]: 50%
degree of damage, Ipomoea ([12]; 60 g of ai./ha): 80%
degree of damage, Ipomoea ([12]; 125 g of ai./ha): 90%
degree of damage, Matricaria [13]: 60%
degree of damage, Polygonum [33]: 80%
degree of damage, Setaria [14]: 50%
degree of damage, Solanum [19]: 40%
degree of damage, Veronica ([15]; 60 g of ai./ha): 70%
degree of damage, Veronica ([15]; 125 g of ai./ha): 90%
degree of damage, Wheat ([20]; 60 g of ai./ha): 0%
degree of damage, Wheat ([20]; 125 g of ai./ha): 0%
degree of damage, Xanthium [16]: 60%

CC(Nc1nc(N)nc(C(C)(C)F)n1)c1ccccc1 (racemic) [Example 13]
degree of damage, Alopecurus ([2]; 250 g of ai./ha): 90%
degree of damage, Avena fatua ([21]; 250 g of ai./ha): 90%
degree of damage, Cassia [4]: 100%
degree of damage, Ipomoea [5]: 80%
degree of damage, Setaria ([9]; 250 g of ai./ha): 80%
degree of damage, Viola [30]: 100%
degree of damage, Barley [32]: 0%
degree of damage, Cassia ([10]; 125 g of ai./ha): 95%
degree of damage, Ipomoea ([12]; 125 g of ai./ha): 100%
degree of damage, Veronica ([15]; 125 g of ai./ha): 100%
degree of damage, Wheat ([20]; 125 g of ai./ha): 0%
action against weeds compared with known compound (A) [8]: considerably strong action against weeds than the known compound (A)
activity against weeds compared with known compound (A) [17]: considerably stronger activity against weeds than the known compound (A)

CCC(Nc1nc(N)nc(C(C)F)n1)c1ccccc1 (racemic) [Example 1, 2-amino-4-(1-fluoro-ethyl)-6-(1-phenyl-propyl-amino)-1,3,5-triazine]
degree of damage, Abutilon ([1]; 1000 g of ai./ha): 70%
degree of damage, Alopecurus ([2]; 1000 g of ai./ha): 100%
degree of damage, Amaranthus ([3]; 1000 g of ai./ha): 100%
degree of damage, Avena fatua ([21]; 1000 g of ai./ha): 70%
degree of damage, Galium [26]: 100%
degree of damage, Xanthium [31]: 100%
degree of damage, Cassia ([10]; 125 g of ai./ha): 90%
degree of damage, Ipomoea ([12]; 60 g of ai./ha): 100%
degree of damage, Ipomoea ([12]; 125 g of ai./ha): 100%
degree of damage, Matricaria [13]: 80%
degree of damage, Polygonum [33]: 100%
degree of damage, Solanum [19]: 95%
degree of damage, Veronica ([15]; 60 g of ai./ha): 95%
degree of damage, Veronica ([15]; 125 g of ai./ha): 100%
action against weeds compared with known compound (A) [8]: considerably strong action against weeds than the known compound (A)
activity against weeds compared with known compound (A) [17]: considerably stronger activity against weeds than the known compound (A)
